Assay results published in ChEMBL document CHEMBL3864155, “Dihydrostilbenes and diarylpropanes: Synthesis and in vitro pharmacological evaluation as potent nitric oxide production inhibition agents” (Bioorg Med Chem Lett, 2016).

How the values were obtained:
[1] = Antiinflammatory activity in mouse RAW264.7 cells assessed as inhibition of LPS-induced nitric oxide production at 1 uM after 18 hrs by Griess assay relative to control; format: functional; details: RAW264.7, 18 h
[2] = Cytotoxicity against mouse RAW264.7 cells assessed as cell proliferation rate at 100 uM after 24 hrs by MTS assay relative to control; format: toxicity; details: read-out: Activity
[3] = Cytotoxicity against mouse RAW264.7 cells assessed as cell proliferation rate at 10 uM after 24 hrs by MTS assay relative to control; format: toxicity; details: read-out: Activity
[4] = Antiinflammatory activity in mouse RAW264.7 cells assessed as inhibition of LPS-induced nitric oxide production at 10 uM after 18 hrs by Griess assay relative to control; format: functional; details: RAW264.7, 18 h
RAW264.7 [5] = assay: Effect on LPS-induced iNOS expression in mouse RAW264.7 cells at 10 uM after 18 hrs by Western blot method relative to LPS; format: functional
[6] = Cytotoxicity against mouse RAW264.7 cells assessed as cell proliferation rate at 50 uM after 24 hrs by MTS assay relative to control; format: toxicity; details: read-out: Activity
[7] = Cytotoxicity against mouse RAW264.7 cells assessed as decrease in cell proliferation rate after 24 hrs by MTS assay; format: toxicity
[8] = Cytotoxicity against mouse RAW264.7 cells assessed as cell proliferation rate at 1 uM after 24 hrs by MTS assay relative to control; format: toxicity; details: read-out: Activity
[9] = Antiinflammatory activity in mouse RAW264.7 cells assessed as inhibition of LPS-induced nitric oxide production at 50 to 100 uM after 18 hrs by Griess assay relative to control; format: functional
RAW264.7 [10] = assay: Antiinflammatory activity in mouse RAW264.7 cells assessed as inhibition of LPS-induced nitric oxide production at 1 to 10 uM after 18 hrs by Griess assay; format: functional, cell-based

| SMILES | inhibition at 1 µM [1] [%] | viability at 24 h, 100 µM [2] [%] | viability at 24 h, 10 µM [3] [%] | inhibition at 10 µM [4] [%] | fold change (FC) (RAW264.7 [5]) | viability at 24 h, 50 µM [6] [%] | IC50 at 24 h [7] [µM] | viability at 24 h, 1 µM [8] [%] | inhibition (INH) [9] [%] | inhibition (RAW264.7 [10]) |
| --- | --- | --- | --- | --- | --- | --- | --- | --- | --- | --- |
| CNC(=N)NCCC[C@H](N)C(=O)O [TILARGININE] | 15 | 97.2 | 100 | 90.1 | 0.92 - 1.02 | 113 | 2.73 | 100 |  |  |
| COc1ccc(CCc2ccc(O)c(O)c2OC)cc1OC | 24.3 | 81.9 | 99.9 | 75.5 | 0.65 | 94.8 | 2.98 | 106 | >80 | Dose-dependent effect |
| COc1ccc(CCc2ccc(O)c(O)c2O)cc1OC | 42.7 | 133 | 114 | 47 | 0.92 | 128 | 6.02 | 114 | >80 | Dose-dependent effect |
| Oc1cc(O)cc(CCCc2ccc3c(c2)OCO3)c1 | 40.8 | 70.4 | 102 | 53.6 | 0.74 | 86.7 | 1.3 | 116 | >80 | Dose-dependent effect |
| COc1cc(CCCc2cc(OC)c(OC)cc2O)ccc1O | 38.2 | 80.9 | 113 | 56.5 | 0.73 | 88.4 | 4.46 | 135 | >80 | Dose-dependent effect |
| COc1ccc(CCCc2ccc(O)c(O)c2O)cc1OC | 29.6 | 73.2 | 130 | 28.6 | 0.71 | 86.4 | 10.7 | 110 | >80 |  |
| COc1cc(CCCc2cc(OC)c(O)c(OC)c2)ccc1O | 27.2 | 82 | 98.7 | 21.8 | 0.81 | 88.7 | 16.4 | 98.4 | >80 |  |
| COc1ccc(CCCc2ccc(O)c(O)c2OC)cc1OC | 36.9 | 61.9 | 103 | 100 | 0.39 | 86.3 | 1.84 | 118 | >80 | Dose-dependent effect |
| COc1cc(CCc2cc(OC)c(OC)cc2O)ccc1O | 35.2 | 133 | 124 | 29.5 | 1.12 | 128 | 13.8 | 120 | >80 |  |
| Oc1cc(O)cc(CCc2ccc3c(c2)OCO3)c1 | 17 | 78.9 | 90.8 | 28.3 | 0.93 | 82.7 | 14.5 | 96.8 | >80 | Dose-dependent effect |
| COc1cc(CCc2cc(OC)c(O)c(OC)c2)ccc1O [MOSCATILIN] | 7.4 | 59.6 | 52.9 | 78.4 | 0.93 | 47 | 4.4 | 143 | >80 | Dose-dependent effect |
